# From publication PMC7465636 (Biomolecules, 2020)
# Read-outs that look alike come from different tables or passages of the source.
# How the values were obtained:
# [1] = system: P. falciparum 3D7; test: In vitro growth assay with flow cytometry, P. falciparum 3D7; type: cell-based, Plasmodium falciparum
# Method: (§1) Erythrocytes infected with P. falciparum 3D7 and the knockout strain for the PfSR25 receptor (PfSR25-) were kept in 175 cm^2 culture bottles (Greiner Bio-One) containing RPMI 1640 with 0.5% NaHCO3, 0.04% sulfate gentamicin, 0.05% hypoxanthine and supplemented with 0.5% AlbuMAX I (Gibco). The culture bottles were maintained at 37 °C and an atmosphere with 90% N2, 5% O2 and 5% CO2 Parasitemia was determined from a blood smear stained with Panotic Rapid (Laborclin).
# (§2) Red blood cells infected with P. falciparum (iRBC) asynchronously with 0.3% initial parasitemia and 1% hematocrit were incubated with different concentrations of compounds ranging from 0.0488 µM to 50 µM, for 72 h at 37 °C under mixture of gases. The control group was treated with solvent Dimethyl Sulfoxide (DMSO) (v/v); with the highest concentration of solvent bring 0.25%.
# (§3) Parasitemia was determined from the dot plots (side scatter versus fluorescence) of at least […] acquired on an Accuri C6 flow cytometer (Becton Dickinson). Initial gating was carried out with unstained, uninfected erythrocytes to account for erythrocyte autofluorescence.
# (§4) After 72 h, iRBCs were stained with nucleic acid marker SYBR Green I (1X) (Invitrogen) and mitochondria marker based on membrane potential MitoTracker Deep Red (50 nM) (Invitrogen), and were incubated for 20 min. at 37 °C. The final parasitemia was obtained by flow cytometer using a BD Accuri C6 Flow Cytometer, collecting 10^³ cells. Dot plots using FlowJo V10.6.2 software determined Parasitemia. At least three independent experiments were performed in triplicate to calculate the IC50 values for each drug.
# In order to identify potential antimalarials present in the library of compounds derived from the 1H-1,2,3-triazoles and 2H-1,2,3-triazoles, we used a culture of P. falciparum (3D7) to perform the screening tests of the compounds. To assess parasitemia at the end of the parasites incubation with the compounds for 72 h, we used a double-label: (1) SYBR Green I to mark DNA and (2) MitoTracker Deep Red as a mitochondria marker. The latter being dependent on the membrane potential, we ensured that only the marking and selection of viable parasites occurred.
# [2] = system: P. falciparum PfSR25- (knockout strain for the PfSR25 receptor); test: In vitro growth assay with flow cytometry, PfSR25- knockout strain; type: cell-based, Plasmodium falciparum; details: for IC50: 72 h; for IC50 for the knockout strain compared with the 3D7 strain: PfSR25- versus 3D7
# Method: as §1, §2, §3, §4
# We also assessed the role of PfSR25 in terms of its susceptibility to compounds with a better antimalarial activity (9, 13, 19, 21, 22, 24 and 29) and compounds with less activity (21) based on the results obtained with the 3D7 screening. Thus, the tests were carried out like that described above and are represented in Figure 5. However, we used the knockout strain for the receptor-like PfSR25- for the tests.
# [3] = system: HEK293 cells; type: cell-based, human; details: 72 h; for survival of HEK293 cells (MTT): 0.0488–50 µM; for toxicity in HEK 293 cells (MTT): at the tested concentrations (0.0488–50 µM)
# Method: Human Embryonic Kidney Cells (HEK293) were kept in 75 cm^2 culture bottles (Greiner Bio-One) at 37 °C, 5% CO2 containing Dulbecco’s Minimal Essential Medium (DMEM), added with 10% fetal bovine serum, 1% Streptomycin and Penicillin and 3.7 g/L of NaHCO3 (Sigma). Cell passages were performed with trypsin-EDTA (Invitrocell). The number of cells was monitored by counting in a Neubauer chamber.
# To evaluate the toxicity of the triazole compounds in mammalian cells, Human Embryonic Kidney cells (HEK293). Cells were plated in flat-bottom 96-well plates at a density of 10^4 cells per well and incubated for 24 h in 150 µL media at 37 °C, 5% CO2. Cells were then treated with different concentrations of each compound, ranging from 0.0488 µM to 50 µM in 200 µL DMEM for 72 h at 37 °C and 5% CO2. Cells treated with DMSO (v/v), with the highest concentration of solvent at 0.25% were used as control. After incubation, 40 µL of MTT reagent (solution 5 mg/mL in PBS) was added to each well, and cells were incubated for further 3 h at 37 °C and 5%CO2 [35]. The media was removed, and 100 µL of DMSO was added in each well. The plates were agitated in a shaker for 10 min to dissolve precipitates. The absorbance was read at 570 nm in a FlexStation 3 (Molecular Devices). Three experiments were performed independently in triplicates.
# [4] = type: physicochemical; details: in our experimental conditions
# Text: The methods used to prepare the 1-aryl-1H-1,2,3-triazoles and 2-aryl-2H-1,2,3-triazoles (54 examples) involved classical chemical transformations, and all evaluated compounds were from the group’s molecular bank and were present in other published works. […] This information can be important for future studies.
# [5] = system: P. falciparum 3D7; details: cited from earlier work
# [6] = system: P. falciparum Dd2; details: cited from earlier work
# [7] = Plasmodium falciparum, 3D7, 72 h, P. falciparum 3D7, 72 h, 0.0488–50 µM, ± standard error of the mean, read-out: IC50
# [8] = P. falciparum 3D7, 72 h, 0.0488–50 µM, ± standard error of the mean, read-out: IC50
molecule,measurement,setting,value
"C[C@@H]1CC[C@H]2[C@@H](C)C(=O)O[C@@H]3O[C@@]4(C)CC[C@@H]1[C@]32OO4 [Artemisinin, reference compound]",IC50,"[1]; Plasmodium falciparum, 3D7, 72 h, 3D7, positive control […] to 160 nM, 72 h, unit inferred, read-out: IC50 (dose-response curve, Figure 3A)",0.0062 ± 0.00073 µM
same,IC50,"[2]; Plasmodium falciparum, read-out: IC50 (dose-response curve, Figure 3B)",0.0058 ± 0.00172 µM
CCOCc1cn(-c2ccc(Cl)cc2)nn1 [Compound 1],IC50,[1]; [7],11.7 ± 0.74 µM
CCOCc1cn(-c2cc(Cl)cc(Cl)c2)nn1 [Compound 2],IC50,[1]; [7],15.4 ± 2.26 µM
CCCOCc1cn(-c2cc(Cl)cc(Cl)c2)nn1 [Compound 3],IC50,[1]; [7],14.5 ± 1.71 µM
CCCOCc1cn(-c2cc(Cl)ccc2Cl)nn1 [Compound 4],IC50,[1]; [7],20.4 ± 0.73 µM
CCCCOCc1cn(-c2cc(Cl)cc(Cl)c2)nn1 [Compound 5],IC50,[1]; [7],23.9 ± 2.01 µM
CCOC(=O)c1cn(-c2ccccc2)nn1 [Compound 6],IC50,[1]; [7],12.8 ± 3.02 µM
O=C(OCc1cn(-c2ccccc2)nn1)c1ccccc1 [Compound 7],IC50,[1]; [7],22.9 ± 0.34 µM
O=C(OCc1cnn(-c2ccccc2)n1)c1ccccc1 [Compound 8],IC50,[1]; [8],27.5 ± 1.26 µM
same,IC50,[1]; [7],> 25 µM
CCCCCCCCCC(=O)OCc1cn(-c2ccc(Cl)cc2)nn1 [Compound 9],IC50 for the knockout strain compared with the 3D7 strain,[2],lower IC50 values for the knockout strain
same,IC50,[2]; Plasmodium falciparum,1.55 ± 0.55 µM
same,survival of HEK293 cells (MTT),[3],above 80%
same,toxicity in HEK 293 cells (MTT),[3],no toxicity
CCCCCCCCCC(=O)OCc1cn(-c2cc(Cl)cc(Cl)c2)nn1 [Compound 10],IC50,[1]; [7],14.6 ± 0.29 µM
CCCCCCCCCC(=O)OCc1cn(-c2ccc(OC)cc2)nn1 [Compound 11],IC50,[1]; [7],23.5 ± 2.77 µM
COc1ccc(-n2cc(COC(=O)c3ccccc3)nn2)cc1 [Compound 12],IC50,[1]; [7],13.5 ± 1.12 µM
ON=Cc1cn(-c2ccc(Cl)cc2)nn1 [Compound 13],IC50,[1]; [8],6.67 ± 1.86 µM
same,IC50,[1]; [7],< 10 µM
same,IC50 for the knockout strain compared with the 3D7 strain,[2],lower IC50 values for the knockout strain
same,IC50,[2]; Plasmodium falciparum,0.89 ± 0.39 µM
same,survival of HEK293 cells (MTT),[3],above 80%
same,toxicity in HEK 293 cells (MTT),[3],no toxicity
O/N=C/c1cn(-c2cc(Cl)ccc2Cl)nn1 [Compound 14],IC50,[1]; [7],21.5 ± 0.84 µM
C(=N\Nc1ccccc1)/c1cnn(-c2ccccc2)n1 [Compound 15],IC50,[1]; [7],18.1 ± 1.92 µM
Clc1ccc(N/N=C/c2cnn(-c3ccccc3)n2)cc1 [Compound 16],IC50,[1]; [8],9.29 ± 1.01 µM
same,IC50,[1]; [7],< 10 µM
Fc1ccc(N/N=C/c2cnn(-c3ccccc3)n2)cc1 [Compound 17],IC50,[1]; [7],14.7 ± 1.28 µM
Clc1ccc(N/N=C/c2cn(-c3ccc(Cl)cc3)nn2)cc1 [Compound 18],IC50,[1]; [7],17.6 ± 1.07 µM
Fc1ccc(N/N=C/c2cn(-c3ccc(Cl)cc3)nn2)cc1 [Compound 19],IC50,[1]; [8],8.45 ± 2.25 µM
same,IC50,[1]; [7],< 10 µM
same,IC50 for the knockout strain compared with the 3D7 strain,[2],lower IC50 values for the knockout strain
same,IC50,[2]; Plasmodium falciparum,2.24 ± 0.77 µM
same,survival of HEK293 cells (MTT),[3],above 80%
same,toxicity in HEK 293 cells (MTT),[3],no toxicity
"Clc1ccc(-n2cc(/C=N/Nc3cc(Cl)ccc3Cl)nn2)cc1 [Compound 20, (E)-1-(4-chlorophenyl)-4-((2-(2,5-dichlorophenyl)hydrazono)methyl)-1H-1,2,3-triazole]",IC50,[1]; [7],13.6 ± 1.2 µM
same,melting point,,181 to 182 °C
"Clc1cc(Cl)cc(-n2cc(/C=N/Nc3ccc(Br)cc3)nn2)c1 [Compound 21, (E)-4-((2-(4-bromophenyl)hydrazono)methyl)-1-(3,5-dichlorophenyl)-1H-1,2,3-triazole]",IC50,[1]; [8],29.3 ± 0.34 µM
same,IC50,[1]; [7],> 25 µM
same,IC50 for the knockout strain compared with the 3D7 strain,[2],lower IC50 values for the knockout strain
same,IC50,[2]; Plasmodium falciparum,12.4 ± 2.51 µM
Cc1ccc(C)c(N/N=C/c2cn(-c3cc(Cl)cc(Cl)c3)nn2)c1 [Compound 23],IC50,[1]; [8],9.23 ± 1.68 µM
same,IC50,[1]; [7],< 10 µM
COc1ccc(-n2cc(/C=N/Nc3ccccc3)nn2)cc1 [Compound 24],IC50 for the knockout strain compared with the 3D7 strain,[2],lower IC50 values for the knockout strain
same,IC50,[2]; Plasmodium falciparum,0.99 ± 0.25 µM
same,survival of HEK293 cells (MTT),[3],above 80%
same,toxicity in HEK 293 cells (MTT),[3],no toxicity
"COc1ccc(-n2cc(/C=N/Nc3ccc(Cl)cc3)nn2)cc1 [Compound 25, (E)-4-((2-(4-chlorophenyl)hydrazono)methyl)-1-(4-methoxyphenyl)-1H-1,2,3-triazole]",IC50,[1]; [8],9 ± 3.27 µM
same,IC50,[1]; [7],< 10 µM
"Clc1ccc(Cl)c(N/N=C/c2cn(-c3cc(Cl)ccc3Cl)nn2)c1 [Compound 26, (E)-1-(2,5-dichlorophenyl)-4-((2-(2,5-dichlorophenyl)hydrazono)methyl)-1H-1,2,3-triazole]",IC50,[1]; [8],9.4 ± 2.87 µM
same,IC50,[1]; [7],< 10 µM
same,melting point,,200 to 201 °C
O=C(N/N=C/c1cn(-c2ccccc2)nn1)c1ccncc1 [Compound 27],IC50,[1]; [7],23.1 ± 2.58 µM
O=C(N/N=C/c1cn(-c2ccc(Cl)cc2)nn1)c1ccncc1 [Compound 28],IC50,[1]; [7],14.5 ± 1.13 µM
"O=C(N/N=C/c1cn(-c2cc(Cl)cc(Cl)c2)nn1)c1ccncc1 [Compound 29, (E)-N′-((1-(3,5-dichlorophenyl)-1H-1,2,3-triazol-4-yl)methylene)isonicotinohydrazide]",IC50,[1]; [8],6.96 ± 1.44 µM
same,IC50,[1]; [7],< 10 µM
same,IC50,[2]; Plasmodium falciparum,9.91 ± 2.94 µM
same,survival of HEK293 cells (MTT),[3],above 80%
same,toxicity in HEK 293 cells (MTT),[3],no toxicity
COc1ccc(-n2cc(/C=N/NC(=O)c3ccncc3)nn2)cc1 [Compound 30],IC50,[1]; [7],23.2 ± 1.94 µM
O=C(N/N=C/c1cnn(-c2ccccc2)n1)c1ccncc1 [Compound 31],IC50,[1]; [7],20.2 ± 0.79 µM
"COc1ccc(-n2cc(/C=N/Nc3ccc(Br)cc3)nn2)cc1 [Compound 52, (E)-4-((2-(4-bromophenyl)hydrazono)methyl)-1-(4-methoxyphenyl)-1H-1,2,3-triazole]",solubilization,[4],weren’t able to be solubilized
same,melting point,,230 to 231 °C
"COc1ccc(-n2cc(/C=N/Nc3ccc(F)cc3)nn2)cc1 [Compound 53, (E)-4-((2-(4-fluorophenyl)hydrazono)methyl)-1-(4-methoxyphenyl)-1H-1,2,3-triazole]",solubilization,[4],weren’t able to be solubilized
same,melting point,,195 to 197 °C
"COc1ccc(-n2cc(/C=N/Nc3cc(C)ccc3C)nn2)cc1 [Compound 54, (E)-4-((2-(2,5-dimethylphenyl)hydrazono)methyl)-1-(4-methoxyphenyl)-1H-1,2,3-triazole]",solubilization,[4],weren’t able to be solubilized
CCOC(=O)C1CN(Cc2c[nH]nn2)c2cc(Cl)c(F)cc2C1=O (stereo not drawn) [III],IC50,[5],1.33 µM
O=[N+]([O-])c1ccc(-n2cc(COc3ccc4cc(Br)ccc4c3)nn2)cc1 [I],IC50,[5],14.7 µM
same,IC50,[6],13.6 µM
"(E)-1-(3,5-dichlorophenyl)-4-((2-(2,5-dimethylphenyl)hydrazono)methyl)-1H-1,2,3-triazole [Compound 22]",IC50,[1]; [8],5.56 ± 0.47 µM
same,IC50,"[2]; PfSR25- knockout strain, ± standard error of the mean, read-out: IC50",4.41 ± 0.6 µM
same,IC50 for the knockout strain compared with the 3D7 strain,[2],lower IC50 values for the knockout strain
same,survival of HEK293 cells (MTT),[3],above 80%
same,toxicity in HEK 293 cells (MTT),[3],no toxicity
